Measurements as given in patent EP0202903A2, “Control of ectoparasites” (priority 1985, dated 1986).

Test system: guinea pigs
Test: Guinea pig systemic test: death of the treated guinea pig before blood sampling
Format: in vivo
Experimental: Adult guinea pigs were used in this test system. The compounds to be tested were dissolved in aqueous polyvinyl pyrrolidone or in polyethylene glycol 200, and an appropriate amount of the solution was administered by intraperitoneal injection. Various doses of the compound were used, as named in the tables below.
Blood was drawn from the guinea pigs at different times, shown in the tables below, and the samples of blood were centrifuged. Dental wicks were saturated with the blood serum, and were then exposed in Petri dishes to adult stable flies or adult house flies; blow fly larvae were exposed in test tubes. Various species were used in various tests. After 24 hours, the insects were examined, and the number of dead were counted.

[1] = 10 mg./kg. intraperitoneal, sampling at 6 hours
[2] = 10 mg./kg. intraperitoneal, sampling at 24 hours
[3] = 25 mg./kg. intraperitoneal, sampling at 6 hours
[4] = 100 mg./kg. intraperitoneal, sampling at 24 hours
[5] = 25 mg./kg. intraperitoneal, sampling at 2 hours
[6] = 25 mg./kg. intraperitoneal, sampling at 48 hours

Measured: Dead (guinea pig died before its blood was sampled)

O=C(CC(=O)C(F)(F)C(F)(F)C(F)(F)F)c1ccc(Cl)s1 [Example 1, 1-(5-Chlorothien-2-yl)-3-perfluoropropyl-1,3-propanedione]
Dead: 5 mg./kg. intraperitoneal, sampling at 24 hours | [1] | [2] | 10 mg./kg. intraperitoneal, sampling at 48 hours | 25 mg./kg. intraperitoneal, sampling at 4 hours | [3] | 30 mg./kg. intraperitoneal, sampling at 6 hours | 40 mg./kg. intraperitoneal, sampling at 6 hours | 50 mg./kg. intraperitoneal, sampling at 4 hours | 50 mg./kg. intraperitoneal, sampling at 6 hours | 50 mg./kg. intraperitoneal, sampling at 24 hours | [4]

O=C(CC(=O)C(F)(F)C(F)(F)C(F)(F)F)c1cc(Cl)sc1Cl [Example 3, 1-(2,5-Dichlorothien-3-yl)-3-perfluoropropyl-1,3-propanedione]
Dead: [2] | [3] | 25 mg./kg. intraperitoneal, sampling at 24 hours

O=C(CC(=O)C(F)(F)C(F)(F)C(F)(F)F)c1ccc([N+](=O)[O-])cc1.[Na] [Example 4, 1-(4-Nitrophenyl)-3-perfluoropropyl-1,3-propanedione, sodium salt]
Dead: [4]

O=C(CC(=O)C1(F)C(F)(F)C(F)(F)C(F)(F)C(F)(F)C1(F)F)c1ccc(Cl)s1 [Example 5, 1-(5-Chlorothien-2-yl)-3-perfluorocyclo-hexyl-1,3-propanedione]
Dead: 25 mg./kg. intraperitoneal, sampling at 5 hours

O=C(CC(=O)C(F)(F)C(F)(F)C(F)(F)F)c1cc(Cl)c(Cl)s1 [Example 7, l-(4,5-Dichlorothien-2-yl)-3-perfluoropropyl-1,3-propanedione]
Dead: [2]

O=C(CC(=O)C(F)(F)C(F)(F)C(F)(F)F)c1ccc(Cl)cc1 [Example 8, 1-(4-Chlorophenyl)-3-perfluoropropyl-1,3-propanedione]
Dead: 10 mg./kg. intraperitoneal, sampling at 5 hours | [5] | [6] | 50 mg./kg. intraperitoneal, sampling at 2 hours | 100 mg./kg. intraperitoneal, sampling at 2 hours

O=C(CC(=O)C(F)(F)C(F)(F)C(F)(F)F)c1cccc(C(F)(F)F)c1.[Na] [Example 12, 1-Perfluoropropyl-3-(3-trifluoromethylphenyl)-1,3-propanedione, sodium salt]
Dead: [3] | [6]

O=C(CC(=O)C(F)(F)C(F)(F)C(F)(F)F)c1ccc(C(F)(F)F)cc1.[Na] [Example 13, 1-Perfluoropropyl-3-(4-trifluoromethylphenyl)-1,3-propanedione, sodium salt]
Dead: [5]

O=C(CC(=O)C(F)(F)C(F)(F)C(F)(F)F)c1ccc(C(F)(F)F)cc1 [Example 14, 1-Perfluoropropyl-3-(4-trifluoromethylphenyl)-1,3-propanedione]
Dead: 5 mg./kg. intraperitoneal, sampling at 5 hours | 5 mg./kg. intraperitoneal, sampling at 48 hours | [1] | [3]
